In US8536183B2, “3-pyridylcarbonyl-piperazinylsulfonyl derivatives” (Convergence Pharmaceuticals Limited, priority 2008, dated 2013):
Where a name gives a salt, the structure may show the parent alone.

Biological target: T1, hCaV2.2 (Homo sapiens, UniProt Q00975)
T1 construct: expressed in transfected cells; plasmids pCIN5-hCaV2.2, pCIH-hCaV β3, pCIP-α2δ1
Experiment: hCaV2.2 assay, IonWorks planar array electrophysiology in stably transfected HEK293 cells
Format: cell-based
Conditions: current elicited by the 1st depolarising pulse inhibited by 50%; HEK293 cells expressing human CaV2.2 alpha/beta3/alpha2delta1; read-out: mean pIC50 (tonic pIC50) (converted)
Experimental: Compounds of the invention may be tested for in vitro biological activity in the hCaV2.2 assay in accordance with the following studies:
Stable cell lines expressing the human CaV2.2 α (als) subunit, along with the human […] and α2δ1 auxiliary subunits were created following sequential transfection and selection of human embryonic kidney (HEK293) cells. HEK293 cells were cultured in Dulbecco's modified Eagles media/F12 media (Invitrogen, Cat #041-95750V) containing 10% foetal bovine serum, with added L-glutamine (2 mM; Invitrogen, Cat #25030-024) and non-essential amino acids (5%; Invitrogen, Cat #11140-035). Initially HEK293 cells were transfected with two plasmid vectors for expression of the hCaV2.2 α subunit (pCIN5-hCaV2.2 which carries a neomycin resistance marker) and the hCaV β3 subunit (pCIH-hCaV β3 which carries a hygromycin resistance marker). Clonal cell lines were isolated following selection in media supplemented with 0.4 mg ml^−1 Geneticin G418 (Invitrogen, Cat #10131-027) and 0.1 mg ml^1 hygromycin (Invitrogen, Cat #10687-010). These clonal cell lines were assessed for Cav2.2α/β3-mediated current expression using the IonWorks planar array electrophysiology technology (described below). A clonal line was identified that gave a reasonable level of functional Cav2.2α/β3 current expression. This cell line was transfected with a plasmid vector for expression of the human […] subunit (pCIP-α2δ1 which carries a puromycin resistance marker) and clonal cell lines isolated following selection in media containing 0.62 μg ml^−1 puromycin (Sigma, Cat #P-7255), in addition to 0.4 mg ml^−1 Geneticin G418 and 0.1 mg ml^−1 hygromycin. Several cell lines were identified that gave robust levels of Cav2.2α/β3/α2δ1-mediated current expression and one of these was selected for compound profiling. Expression of all three subunits within this cell line was continuously maintained by the inclusion of G418 (0.4 mg ml^−1), hygromycin (0.1 mg ml^−1) and puromycin (0.62 μg ml^−1). Cells were maintained at 37° C. in a humidified environment containing 5% CO2 in air. Cells were liberated from the T175 culture flasks for passage and harvesting using TrpLE (Invitrogen, Cat #12604-013).
Cells were grown to 30-60% confluence in T175 flasks and maintained at 30° C. for 24 hrs prior to recording. Cells were lifted by removing the growth media, washing with Ca^2+ free PBS (Invitrogen, Cat #14190-094) and incubating with 3 ml of warmed (37° C.) TrpLE (Invitrogen, Cat #12604-013) for 6 minutes. Lifted cells were suspended in 10 ml of extracellular buffer. Cell suspension was then placed into a 15 ml tube and centrifuged for 2 minutes at 700 rpm. After centrifugation, the supernatant was removed and the cell pellet was resuspended in 4.5 ml of extracellular solution.
Currents were recorded at room temperature (21-23° C.) using the IonWorks planar array electrophysiology technology (Molecular Devices Corp.). Stimulation protocols and data acquisition were carried out using a microcomputer (Dell Pentium 4). In order to determine planar electrode hole resistances (Rp), a 10 mV, 160 ms potential difference was applied across each hole. These measurements were performed before cell addition. After cell addition a seal test was performed prior to antibiotic (amphotericin) circulation to achieve intracellular access. Leak subtraction was conducted in all experiments by applying a 160 ms hyperpolarizing (10 mV) prepulse 200 ms before the test pulses to measure leak conductance. Test pulses stepping from the holding potential (VH) of −90 mV to +10 mV were applied for 20 ms and repeated 10 times at a frequency of 10 Hz. In all experiments, the test pulse protocol was performed in the absence (pre-read) and presence (post-read) of a compound. Pre- and post-reads were separated by a compound addition followed by a 3-3.5 min incubation.
The intracellular solution contained the following (in mM): K-gluconate 120, KCl 20 mM, MgCl2 5, EGTA 5, HEPES 10, adjusted to pH 7.3. […]

T1 sequence (Q00975 whole entry): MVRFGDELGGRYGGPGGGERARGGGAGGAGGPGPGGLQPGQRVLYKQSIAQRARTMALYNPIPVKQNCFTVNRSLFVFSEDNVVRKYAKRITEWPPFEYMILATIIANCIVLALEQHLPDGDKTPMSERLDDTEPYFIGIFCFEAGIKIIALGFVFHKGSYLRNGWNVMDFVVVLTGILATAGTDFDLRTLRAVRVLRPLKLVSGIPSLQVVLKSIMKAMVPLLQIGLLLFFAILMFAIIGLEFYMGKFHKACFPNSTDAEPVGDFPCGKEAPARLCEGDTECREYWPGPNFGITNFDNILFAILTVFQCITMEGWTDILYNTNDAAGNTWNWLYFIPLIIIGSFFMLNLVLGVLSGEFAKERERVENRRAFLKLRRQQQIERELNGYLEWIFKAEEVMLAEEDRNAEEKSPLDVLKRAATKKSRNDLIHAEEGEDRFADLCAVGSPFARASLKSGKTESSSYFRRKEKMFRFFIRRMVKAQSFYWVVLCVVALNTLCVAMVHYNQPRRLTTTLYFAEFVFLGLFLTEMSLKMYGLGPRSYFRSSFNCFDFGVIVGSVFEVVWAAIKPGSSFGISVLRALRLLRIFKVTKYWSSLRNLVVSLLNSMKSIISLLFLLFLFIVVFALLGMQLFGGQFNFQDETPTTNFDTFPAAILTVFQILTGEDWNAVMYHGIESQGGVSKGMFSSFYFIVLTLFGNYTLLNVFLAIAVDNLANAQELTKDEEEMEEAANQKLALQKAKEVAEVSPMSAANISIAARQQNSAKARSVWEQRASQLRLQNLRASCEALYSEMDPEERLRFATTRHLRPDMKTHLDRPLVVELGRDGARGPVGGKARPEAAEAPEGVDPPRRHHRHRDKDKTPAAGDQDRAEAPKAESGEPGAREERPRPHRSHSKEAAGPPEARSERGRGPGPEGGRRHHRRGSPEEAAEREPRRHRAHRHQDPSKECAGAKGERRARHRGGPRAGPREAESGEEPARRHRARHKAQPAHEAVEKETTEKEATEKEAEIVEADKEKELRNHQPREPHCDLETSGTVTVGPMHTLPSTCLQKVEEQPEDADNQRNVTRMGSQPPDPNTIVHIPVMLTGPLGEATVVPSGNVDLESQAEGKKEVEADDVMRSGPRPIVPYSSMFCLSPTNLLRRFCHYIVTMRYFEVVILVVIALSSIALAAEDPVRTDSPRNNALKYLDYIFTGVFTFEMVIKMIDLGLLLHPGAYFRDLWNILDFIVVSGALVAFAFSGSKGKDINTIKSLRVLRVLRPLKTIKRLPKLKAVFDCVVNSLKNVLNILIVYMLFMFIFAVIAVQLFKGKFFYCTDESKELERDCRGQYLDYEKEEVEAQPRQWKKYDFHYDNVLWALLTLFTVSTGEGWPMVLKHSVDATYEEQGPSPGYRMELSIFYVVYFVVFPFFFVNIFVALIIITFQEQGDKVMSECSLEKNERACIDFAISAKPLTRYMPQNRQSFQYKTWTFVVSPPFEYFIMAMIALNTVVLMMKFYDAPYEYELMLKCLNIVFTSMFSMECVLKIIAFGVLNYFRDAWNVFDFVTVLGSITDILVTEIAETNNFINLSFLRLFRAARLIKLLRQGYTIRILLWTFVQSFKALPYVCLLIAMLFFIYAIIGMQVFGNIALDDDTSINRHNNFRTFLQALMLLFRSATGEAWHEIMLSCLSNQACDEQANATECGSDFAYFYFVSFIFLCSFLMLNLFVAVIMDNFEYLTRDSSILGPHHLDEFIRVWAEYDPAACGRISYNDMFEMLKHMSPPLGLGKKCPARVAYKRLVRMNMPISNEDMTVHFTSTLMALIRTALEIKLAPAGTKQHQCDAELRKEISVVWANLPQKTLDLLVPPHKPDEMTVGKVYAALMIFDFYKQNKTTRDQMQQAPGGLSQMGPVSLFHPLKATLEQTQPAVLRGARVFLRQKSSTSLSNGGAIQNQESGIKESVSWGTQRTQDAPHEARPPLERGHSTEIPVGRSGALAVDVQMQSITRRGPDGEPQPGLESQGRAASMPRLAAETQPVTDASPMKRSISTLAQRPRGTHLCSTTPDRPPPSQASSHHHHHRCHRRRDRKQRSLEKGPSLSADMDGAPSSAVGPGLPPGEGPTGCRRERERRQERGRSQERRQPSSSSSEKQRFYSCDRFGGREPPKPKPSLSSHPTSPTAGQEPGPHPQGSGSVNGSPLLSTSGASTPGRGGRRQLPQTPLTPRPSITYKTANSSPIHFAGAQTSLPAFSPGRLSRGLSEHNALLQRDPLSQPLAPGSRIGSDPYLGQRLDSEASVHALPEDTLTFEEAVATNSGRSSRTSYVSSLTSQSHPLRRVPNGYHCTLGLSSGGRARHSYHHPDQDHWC

SMILES | IC50 [µM]
O=C(c1ccc(N2CCCC2)nc1)N1CCN(S(=O)(=O)c2ccc(C(F)(F)F)cc2)CC1 [Example 69, 1-{[6-(1-pyrrolidinyl)-3-pyridinyl]carbonyl}-4-{[4-(trifluoromethyl)phenyl]sulfon-yl}piperazine] | ≥ 31.6
Cc1cc(C#N)ccc1S(=O)(=O)N1CCN(C(=O)c2ccc(Cl)nc2C)[C@@H](C)C1 [Example 25, 4-({(3S)-4-[(6-Chloro-2-methyl-3-pyridinyl)carbonyl]-3-methyl-1-piperazinyl}sulfonyl)-3-methylbenzonitrile] | ≥ 10
Cc1ccc(C(=O)N2CCN(S(=O)(=O)c3ccc(Cl)cc3)[C@@H](C)C2)cn1 [Example 8, (2S)-1-[(4-Chlorophenyl)sulfonyl]-2-methyl-4-[(6-methyl-3-pyridinyl)carbonyl]piperazine] | ≥ 31.6
O=C(c1ccc(N2CCOCC2)nc1)N1CCN(S(=O)(=O)c2ccc(C(F)(F)F)cc2)CC1 [Example 6, 4-{5-[(4-{[4-(Trifluoromethyl)phenyl]sulfonyl}-1-piperazinyl)carbonyl]-2-pyridinyl}morpholine] | ≥ 31.6
Cc1ccc(C(=O)N2CCN(S(=O)(=O)c3cc(C(F)(F)F)ccc3C)CC2)cn1 [Example 61, 1-[(6-methyl-3-pyridinyl)carbonyl]-4-{[2-methyl-5-(trifluoromethyl)phenyl]sulfon-yl}piperazine] | ≥ 31.6
CCc1ccc(C(=O)N2CCN(S(=O)(=O)c3ccc(C#N)cc3C)C[C@@H]2C)cn1 [Example 53, 4-({(3S)-4-[(6-ethyl-3-pyridinyl)carbonyl]-3-methyl-1-piperazinyl}sulfonyl)-3-methylbenzonitrile hydrochloride] | ≥ 31.6
Cc1ccc(C(=O)N2CCN(S(=O)(=O)c3ccc(C#N)cc3C)[C@@H](C)C2)cn1 [Example 52, 3-methyl-4-({(2S)-2-methyl-4-[(6-methyl-3-pyridinyl)carbonyl]-1-piperazinyl}sulfonyl)benzonitrile hydrochloride] | ≥ 31.6
Cc1ccc(C(=O)N2CCN(S(=O)(=O)c3ccc(C#N)cc3C)C[C@@H]2C)c(C)n1 [Example 67, 4-({(3S)-4-[(2,6-dimethyl-3-pyridinyl)carbonyl]-3-methyl-1-piperazinyl}sulfonyl)-3-methylbenzonitrile] | ≥ 31.6
C[C@H]1CN(S(=O)(=O)c2ccc(C(F)(F)F)cc2)CCN1C(=O)c1ccc(N2CCC2)nc1 [Example 45, (2S)-1-{[6-(1-Azetidinyl)-3-pyridinyl]carbonyl}-2-methyl-4-{[4-(trifluoromethyl)phenyl]sulfonyl}piperazine hydrochloride] | ≥ 10
Cc1cc(C)c(C(=O)N2CCN(S(=O)(=O)c3ccc(C#N)cc3C)C[C@@H]2C)cn1 [Example 68, 4-({(3S)-4-[(4,6-dimethyl-3-pyridinyl)carbonyl]-3-methyl-1-piperazinyl}sulfonyl)-3-methylbenzonitrile] | ≥ 31.6
Cc1ncccc1C(=O)N1CCN(S(=O)(=O)c2ccc(OC(F)(F)F)cc2)C[C@@H]1C [Example 64, (2S)-2-methyl-1-[(2-methyl-3-pyridinyl)carbonyl]-4-({4-[(trifluoromethyl)oxy]phenyl}sulfonyl)piperazine] | ≥ 31.6
Cc1ccc(C(=O)N2CCN(S(=O)(=O)c3ccc(C(F)(F)F)cc3)CC2)cn1 [Example 4, 1-[(6-Methyl-3-pyridinyl)carbonyl]-4-{[4-(trifluoromethyl)phenyl]sulfonyl}piperazine] | ≥ 31.6
COc1ccc(C(=O)N2CCN(S(=O)(=O)c3ccc(C(F)(F)F)cc3)C[C@@H]2C)cn1 [Example 14, (2S)-2-Methyl-1-{[6-(methyloxy)-3-pyridinyl]carbonyl}-4-{[4-(trifluoromethyl)phenyl]sulfonyl}piperazine] | ≥ 31.6
Cc1cc(C#N)ccc1S(=O)(=O)N1CCN(C(=O)c2ccc(N(C)C)nc2C)[C@@H](C)C1 [Example 30, 4-[((3S)-4-{[6-(Dimethylamino)-2-methyl-3-pyridinyl]carbonyl}-3-methyl-1-piperazinyl)sulfonyl]-3-methylbenzonitrile hydrochloride] | ≥ 10
C[C@H]1CN(C(=O)c2ccc(N3CCOCC3)nc2)CCN1S(=O)(=O)c1ccc(Cl)cc1 [Example 7, 4-[5-({(3S)-4-[(4-Chlorophenyl)sulfonyl]-3-methyl-1-piperazinyl}carbonyl)-2-pyridinyl]morpholine] | ≥ 31.6
Cc1ncccc1C(=O)N1CCN(S(=O)(=O)c2ccc(OC(F)(F)F)cc2)C[C@H]1C [Example 65, (2R)-2-methyl-1-[(2-methyl-3-pyridinyl)carbonyl]-4-({4-[(trifluoromethyl)oxy]phenyl}sulfonyl)piperazine] | ≥ 31.6
Cc1nc(N2CCC2)ccc1C(=O)N1CCN(S(=O)(=O)c2ccc(C(F)(F)F)cc2)C[C@@H]1C [Example 39, (2S)-1-{[6-(1-Azetidinyl)-2-methyl-3-pyridinyl]carbonyl}-2-methyl-4-{[4-(trifluoromethyl)phenyl]sulfonyl}piperazine hydrochloride] | ≥ 31.6
Cc1ccc(C(=O)N2CCN(S(=O)(=O)c3ccc(C(F)(F)F)cc3C)CC2)cn1 [Example 74, 1-[(6-methyl-3-pyridinyl)carbonyl]-4-{[2-methyl-4-(trifluoromethyl)phenyl]sulfonyl}piperazine] | ≥ 31.6
Cc1nc(N2CCOCC2)ccc1C(=O)N1CCN(S(=O)(=O)c2ccc(C(F)(F)F)cc2)C[C@@H]1C [Example 34, 4-{6-Methyl-5-[((2S)-2-methyl-4-{[4-(trifluoromethyl)phenyl]sulfonyl}-1-piperazinyl)carbonyl]-2-pyridinyl}morpholine hydrochloride] | ≥ 10
Cc1ccc(C(=O)N2CCN(S(=O)(=O)c3ccc(C#N)cc3C)C[C@H]2C)cn1 [Example 63, 3-methyl-4-({(3R)-3-methyl-4-[(6-methyl-3-pyridinyl)carbonyl]-1-piperazinyl}sulfonyl)benzo-nitrile] | ≥ 31.6
C[C@H]1CN(S(=O)(=O)c2ccc(C(F)(F)F)cc2)CCN1C(=O)c1cncc(Br)c1 [Example 28, (2S)-1-[(5-Bromo-3-pyridinyl)carbonyl]-2-methyl-4-{[4-(trifluoromethyl)phenyl]sulfonyl}piperazine] | ≥ 10
Cc1ncccc1C(=O)N1CCN(S(=O)(=O)c2ccc(C(F)(F)F)cc2)C[C@H]1C [Example 20, (2R)-2-methyl-1-[(2-methyl-3-pyridinyl)carbonyl]-4-{[4-(trifluoromethyl)phenyl]sulfonyl}piperazine formic acid salt (1:1)] | ≥ 31.6
Cc1ccc(C(=O)N2CCN(S(=O)(=O)c3ccc(C(F)(F)F)cc3)C[C@@H]2C)cn1 [Example 1, (2S)-2-Methyl-1-[(6-methyl-3-pyridinyl)carbonyl]-4-{[4-(trifluoromethyl)phenyl]sulfonyl}piperazine] | ≥ 31.6
Cc1ccc(C(=O)N2CCN(S(=O)(=O)c3ccc(C#N)cc3C)C[C@@H]2C)cn1 [Example 17, 3-Methyl-4-({(3S)-3-methyl-4-[(6-methyl-3-pyridinyl)carbonyl]-1-piperazinyl}sulfonyl)benzonitrile] | ≥ 31.6
C[C@H]1CN(S(=O)(=O)c2ccc(C(F)(F)F)cc2)CCN1C(=O)c1ccc(N2CCOCC2)nc1 [Example 42, 4-{5-[((2S)-2-Methyl-4-{[4-(trifluoromethyl)phenyl]sulfonyl}-1-piperazinyl)carbonyl]-2-pyridinyl}morpholine hydrochloride] | ≥ 10
